The source of these data is patent publication US9526737B2, “Oxysterols for activation of hedgehog signaling, osteoinduction, antiadipogenesis, and Wnt signaling” (THE REGENTS OF THE UNIVERSITY OF CALIFORNIA, priority 2007, dated 2016).

Common to all, as to type: cell-based
In test [1] the test system is TCF/Lef transcriptional activity (Cyclin D1 promoter element). Description: Cyclin D1 promoter element luciferase reporter assay (Cyclin D1-luc). To be noted: M2 cells, 24 hours; 5 μM SS or 40 mM LiCl. How it is done:
(§1) M2-10B4 cells at 70% confluence were transfected for 24 hours using FuGENE 6 Transfection Reagent (Roche Applied Science, Indianapolis, Ind.) according to manufacturer's instructions. The wild-type and mutant TCF/LEF binding site driven luciferase constructs (TBE4-luc and TBE4-luc-mut, repectively) were generous gifts from Dr. Baruch Frenkel (University of Southern California, Los Angeles, Calif.), and the Cyclin D1 promoter element-driven luciferase construct (Cyclin D1-luc) was a generous gift from Dr. Fanxin Long (Washington University, St. Louis, Mo.). Firefly luciferase values were normalized to Renilla luciferase activity and pEGFP-NI was used to evaluate transfection efficiency. Cells were then treated for 24, 48, or 72 hours with test agents before measuring luciferase activity using the Dual-Luciferase Reporter 1000 Assay System (Promega, Madison, Wis.) according to the manufacturer's instructions.
M2 cells were transfected with a luciferase reporter driven by a Cyclin D1 promoter element (Cyclin D1-luc) and analyzed for their response to 5 μM SS, 40 mM LiCl, or control vehicle after 24 h of treatment (see FIG. 3B).
(In general: A reporter such as luciferase makes a cellular process visible.)

In a further test the test system is Axin2 mRNA expression. The test is described as follows: Q-RT-PCR for Axin2 mRNA expression. To be noted: M2 cells, 8 and 48 hours; 5 μM SS, 200 ng/ml Shh, 40 mM LiCl. How it is done:
(§2) Total RNA was extracted with the RNA isolation kit from Stratagene (La Jolla, Calif.) according to the manufacturer's instructions. RNA was DNase-treated using the DNA-free kit from Ambion, Inc. (Austin, Tex.). 3 μg of RNA was reverse-transcribed using reverse transcriptase from Stratagene (La Jolla, Calif.) to make single stranded cDNA. The cDNAs were mixed with Qi SYBR Green Supermix from Bio-Rad Laboratories (Hercules, Calif.) for quantitative RT-PCR using a Bio-Rad I-cycler IQ quantitative thermocycler. All PCR samples were prepared in triplicate or quadruplicate. Each sample was added to duplicate wells of a 96-well plate. After 40 cycles of PCR, melt curves were analyzed in order to ensure primer specificity, and the identity of all PCR products were verified by sequencing and comparing with the complete mRNA sequence obtained from PubMed's GenBank. Fold changes in gene expression were calculated using the ΔΔCt method (14). All primers were designed using the Beacon Designer software from Bio-Rad Laboratories (Hercules, Calif.). […]
M2 cells were treated with 5 μM SS, 200 ng/ml Shh, 40 mM LiCl, or control vehicle for 8 or 48 h. RNA was isolated and analyzed by Q-RT-PCR for Axing expression (See FIGS. 4A and 4B).

Test [2] concerns TCF/Lef transcriptional activity. Description: TCF/Lef luciferase reporter assay (TBE4-luc). To be noted: M2 cells, 24 hours; 5 μM SS, 200 ng/ml Shh or 40 mM LiCl. How it is done:
as §1
M2 cells were transfected with a luciferase reporter driven by 4 wild-type or mutant TCF/Lef DNA binding sites (TBE4-luc and TBE4-luc-mut, respectively) and analyzed for their response to 5 μM SS, 200 ng/ml Shh, 40 mM LiCl, or control vehicle after 24 h of treatment (see FIG. 3A).

For test [3], the system named is Cyclin D1 mRNA expression. Description: Q-RT-PCR for Cyclin D1 mRNA expression. To be noted: M2 cells. As for the experimental part:
as §2
M2 cells were treated with 5 μM SS, 200 ng/ml Shh, or control vehicle for 8 or 48 h. RNA was isolated and analyzed by Q-RT-PCR for Cyclin D1 expression (See FIGS. 4C and 4D).

As to `[Cl-].[Li+]` [LiCl, lithium chloride], in test [1], the “Cyclin D1 promoter element TCF/Lef reporter activity” value is on record as “activated”. Moreover, in the test on Axin2 mRNA expression, the “Axin2 mRNA expression” value was “induced its expression at both time points”. For the same compound, the “TCF/Lef reporter activity compared to untreated control cells” value in test [2] is listed as “significantly induced”. Further, the results for the “Cyclin D1 mRNA expression” value in test [3] (8 hours) and in test [3] (48 hours) were “did not induce” and “inhibited its baseline expression”, respectively.
